In general, IC50 refers to the point on the concentration scale where inhibition reaches its midpoint.

Like-named read-outs stand apart in the source and are kept apart here.

Data set [1] has as its system U87MG spheroids. As to the kind of experiment: Antiproliferative activity, 3D spheroids, CellTiter-Glo 3D assay. The format is cell-based, human. The following applies: for PI (phototoxicity index) 3D: IC50 dark / IC50 420 nm irradiated; for IC50: U87MG 3D spheroids, 90 min treatment, CellTiter-Glo 3D; for TMI (3D/2D): ratio of IC50 for 3D and 2D models under irradiation. How it is done:
The antiproliferative activity of the compounds under investigation was assessed using the Sulforhodamine B (SRB) assay on both 2D cell monolayers and 3D spheroids. For the 2D cell monolayer assay, cells were seeded in 96-well tissue culture plates at a density of 3 × 10^3 cells/well in 100 μL of culture medium. Following overnight incubation in a humidified CO2 incubator, the medium was replaced, and the cells were treated with the investigated compounds in a final volume of 200 μL/well of Earle’s Balanced Salt Solution (EBSS). The cells were then exposed to the tested compounds for 1.5 h under dark conditions (5% CO2, 37 °C) and subsequently irradiated with blue light (420 nm) for 30 min at an intensity of 58 W/m^2. After treatment, the samples were washed with Phosphate-Buffered Saline (PBS) and replenished with 200 μL of culture medium. Following an additional 70-h incubation, the cells were washed with PBS, fixed with trichloroacetic acid at 4 °C for 1 h, and stained with 0.4% SRB dye for 30 min. The stained cells were dissolved with Tris (10 mM), and the cell viability was assessed by measuring the absorbance at 570 nm using an Absorbance Reader (SPARK TECAN, SCHOELLER). The absorbance readings were then converted to the percentage of control (% cell survival), and the antiproliferative effects were expressed as IC50 values, which were calculated from curves plotting cell survival (%) versus drug concentration (μM) (IC50 = the concentration of the agent that inhibits cell growth by 50%). For experiments with 3D spheroids, 2500 single cells/well were seeded on ultralow attachment U-shape 96-well plates (Corning, USA) and cultured for 72 h in 3D forming medium DMEM-F12 ham medium supplemented with growth and spheroid forming factors: 2% B27 (Thermo Fisher Scientific Inc., MA, USA), epidermal growth factor (EGF; Sigma-Aldrich, Germany, 20 ng mL^–1), fibroblast growth factor (FGF2; Sigma-Aldrich, Germany, 10 ng mL^–1), and BSA (0.15%). After the 72-h spheroid formation period, the samples were treated and irradiated as described for the 2D cultures. Subsequently, the samples were cultured in the 3D forming medium for an additional 70 h, and the antiproliferative potency of the tested compounds against spheroids was determined by assessing changes in IC50 values using the CellTiterGlo-3D assay (Promega). The luminescence signal was detected using the plate reader SPARK (Tecan, Manedorf, Switzerland), and the IC50 values were calculated from the survival curves. All experiments were conducted in triplicate to ensure the reliability and reproducibility of the results. Furthermore, the concentrations of the compounds in the medium during the treatment were verified using Flame Atomic Absorption Spectroscopy (FAAS) or Inductively Coupled Plasma Mass Spectrometry (ICP-MS).
The antiproliferative activity (IC50 valuesa) of the investigated compounds determined in 2D and 3D models of U87MG cellsb
Dark Irradiated PId Dark Irradiated PIe (3D/2D) […]
a Concentration that causes 50% inhibition of cell proliferation. b Cell monolayer or generated 3D spheroids were treated for 90 min with increasing concentrations of the investigated compounds, followed by 30 min of irradiation with blue light (420 nm; 58 Wm-2) and 70 h of drug-free incubation. c IC50 values were determined by SRB assay. d IC50 values were determined by CellTiter-Glo® 3D chemiluminescent assay. e PI - phototoxicity index was calculated as the ratio of IC50 determined under the dark conditions / IC50 determined for 420 […]
f TMI – tissue-mass index was calculated as the ratio of IC50 values determined for 3D and 2D models under irradiation conditions.

Data set [2] has as its system U87MG cells. As to the kind of experiment: Antiproliferative activity, 2D monolayer, SRB assay. Type of data set: cell-based, human. The following applies: for PI (phototoxicity index) 2D: IC50 dark / IC50 420 nm irradiated; for IC50: U87MG 2D monolayer, 90 min treatment, SRB. Here is the method: The antiproliferative activity of the compounds under investigation was assessed using the Sulforhodamine B (SRB) assay on both 2D cell monolayers and 3D spheroids. For the 2D cell monolayer assay, cells were seeded in 96-well tissue culture plates at a density of 3 × 10^3 cells/well in 100 μL of culture medium. Following overnight incubation in a humidified CO2 incubator, the medium was replaced, and the cells were treated with the investigated compounds in a final volume of 200 μL/well of Earle’s Balanced Salt Solution (EBSS). The cells were then exposed to the tested compounds for 1.5 h under dark conditions (5% CO2, 37 °C) and subsequently irradiated with blue light (420 nm) for 30 min at an intensity of 58 W/m^2. After treatment, the samples were washed with Phosphate-Buffered Saline (PBS) and replenished with 200 μL of culture medium. Following an additional 70-h incubation, the cells were washed with PBS, fixed with trichloroacetic acid at 4 °C for 1 h, and stained with 0.4% SRB dye for 30 min. The stained cells were dissolved with Tris (10 mM), and the cell viability was assessed by measuring the absorbance at 570 nm using an Absorbance Reader (SPARK TECAN, SCHOELLER). […] After the 72-h spheroid formation period, the samples were treated and irradiated as described for the 2D cultures. […] The luminescence signal was detected using the plate reader SPARK (Tecan, Manedorf, Switzerland), and the IC50 values were calculated from the survival curves. All experiments were conducted in triplicate to ensure the reliability and reproducibility of the results. Furthermore, the concentrations of the compounds in the medium during the treatment were verified using Flame Atomic Absorption Spectroscopy (FAAS) or Inductively Coupled Plasma Mass Spectrometry (ICP-MS). […]
drug-free incubation. c IC50 values were determined by SRB assay. d IC50 values were determined by CellTiter-Glo® 3D chemiluminescent assay. e PI - phototoxicity index was calculated as the ratio of IC50 determined under the dark conditions / IC50 determined for 420 […]
models under irradiation conditions.
A general note: The SRB assay estimates cell density from bound dye.

Data set [3] is described as follows: Stability in the dark by UV/vis spectroscopy. The format is physicochemical. The following applies: DMSO, water, cell culture medium (RPMI), presence of glutathione; up to 24h. How it is done:
The stability of complex Ir10 was studied in DMSO, water (1% DMSO), and RPMI (5% DMSO) using UV/vis spectroscopy at different times in the absence and presence of GSH (10 mM) or NADH (100 μM) to mimic the cellular and physiological conditions (Figure S6).

Where [4] appears, read: dark, 70 h drug-free, read-out: IC50 3D Dark.
Setting [5] is: 30 min blue light 420 nm 58 W m-2, 70 h drug-free, read-out: IC50 3D Irradiated.
Setting [6] is: dark, 70 h drug-free incubation, read-out: IC50 2D Dark.
[7] abbreviates: 30 min blue light 420 nm 58 W m-2, 70 h drug-free, read-out: IC50 2D Irradiated.

`Cc1ccc(-c2cc3[n+]4c(c2)-c2cccc[n+]2[Ir-3]42([Cl])([c]4ccsc4-c4n(C)c5ccccc5[n+]42)[n+]2ccccc2-3)cc1.F[P-](F)(F)(F)(F)F` [Ir8]: the “PI (phototoxicity index) 3D” value in data set [1] was determined as 2.8. Also, the IC50 in data set [1] (setting [4]) worked out at 19.3 ± 0.7 µM; in data set [1] (setting [5]) it was 7 ± 0.9 µM; in data set [2] (setting [6]) it was 9.3 ± 0.9 µM; in data set [2] (setting [7]), 0.8 ± 0.05 µM. In addition, in data set [1], the “TMI (3D/2D)” value amounted to 8.8. The “PI (phototoxicity index) 2D” value in data set [2] was 12.
On to `COC(=O)c1ccc2c(c1)[n+]1c(n2Cc2ccc(C(F)(F)F)cc2)-c2cccc[c]2[Ir-3]123([Cl])[n+]1ccccc1-c1cc(-c4ccc(C)cc4)cc([n+]12)-c1cccc[n+]13.F[P-](F)(F)(F)(F)F` [Ir10], for which, in data set [1], the “PI (phototoxicity index) 3D” value is given as 3.9. Also, the IC50 was 41.3 ± 1.6 µM in data set [1] (setting [4]), 10.5 ± 0.6 µM in data set [1] (setting [5]), 34.2 ± 5.3 µM in data set [2] (setting [6]) and 2.2 ± 0.9 µM in data set [2] (setting [7]). The “TMI (3D/2D)” value in data set [1] was determined as 4.8. Further, the “stability in the dark” value in data set [3] is “stable”. Moreover, the “PI (phototoxicity index) 2D” value in data set [2] stood at 15.5.
For the molecule `Cc1ccc(-c2cc3[n+]4c(c2)-c2cccc[n+]2[Ir-3]42([Cl])([c]4ccccc4-c4n(Cc5ccc(C(F)(F)F)cc5)c5ccccc5[n+]42)[n+]2ccccc2-3)cc1.F[P-](F)(F)(F)(F)F` [Ir2], the “PI (phototoxicity index) 3D” value in data set [1] is recorded as 3.0. Also, the half-maximal inhibitory concentration (IC50) turned out to be 14.9 ± 0.5 µM in data set [1] (setting [4]), 5 ± 0.2 µM in data set [1] (setting [5]), 6.9 ± 0.4 µM in data set [2] (setting [6]) and 0.43 ± 0.02 µM in data set [2] (setting [7]). Further, the “TMI (3D/2D)” value in data set [1] was found to be 11.6. Besides, the “PI (phototoxicity index) 2D” value in data set [2] is 16.
`Cc1ccc(-c2cc3[n+]4c(c2)-c2cccc[n+]2[Ir-3]42([Cl])([c]4cc5ccccc5cc4-c4n(C)c5ccccc5[n+]42)[n+]2ccccc2-3)cc1.F[P-](F)(F)(F)(F)F` [Ir7]: in data set [1], the “PI (phototoxicity index) 3D” value is on record as 1.6. The IC50 in data set [1] (setting [4]) came to 10.8 ± 1.6 µM; in data set [1] (setting [5]), 6.7 ± 0.6 µM; in data set [2] (setting [6]) it was 7.1 ± 0.4 µM; in data set [2] (setting [7]), 1.5 ± 0.2 µM. Moreover, the “TMI (3D/2D)” value in data set [1] came out at 4.5. The “PI (phototoxicity index) 2D” value in data set [2] worked out at 4.7.
In the case of `Cc1ccc(-c2cc3[n+]4c(c2)-c2cccc[n+]2[Ir-3]42([Cl])([c]4c(ccc5c4OCO5)-c4n(C)c5ccccc5[n+]42)[n+]2ccccc2-3)cc1.F[P-](F)(F)(F)(F)F` [Ir9], the “PI (phototoxicity index) 3D” value in data set [1] came to 2.6. The 50% inhibitory concentration (IC50) stood at 18.9 ± 0.2 µM in data set [1] (setting [4]), 7.3 ± 0.3 µM in data set [1] (setting [5]), 6.2 ± 0.7 µM in data set [2] (setting [6]) and 1.3 ± 0.2 µM in data set [2] (setting [7]). For the same molecule, the “TMI (3D/2D)” value in data set [1] is given as 5.6. The “PI (phototoxicity index) 2D” value in data set [2] is listed as 4.6.
Turning to `Cc1ccc(-c2cc3[n+]4c(c2)-c2cccc[n+]2[Ir-3]42([Cl])([c]4ccsc4-c4n(Cc5ccc(C(F)(F)F)cc5)c5ccccc5[n+]42)[n+]2ccccc2-3)cc1.F[P-](F)(F)(F)(F)F` [Ir1], the “PI (phototoxicity index) 3D” value in data set [1] is recorded as 2.9. Besides, the IC50 in data set [1] (setting [4]) was found to be 16.4 ± 0.2 µM; in data set [1] (setting [5]) it was 5.7 ± 0.7 µM; in data set [2] (setting [6]), 4.3 ± 0.1 µM; in data set [2] (setting [7]), 1.3 ± 0.1 µM. The “TMI (3D/2D)” value in data set [1] was determined as 4.4. The “PI (phototoxicity index) 2D” value in data set [2] turned out to be 3.5.
In the case of `Cc1ccc(-c2cc3[n+]4c(c2)-c2cccc[n+]2[Ir-3]42([Cl])([c]4ccccc4-c4n(C)c5ccccc5[n+]42)[n+]2ccccc2-3)cc1.F[P-](F)(F)(F)(F)F` [Ir6], in data set [1], the “PI (phototoxicity index) 3D” value was 3.1. For the same molecule, the concentration for half-maximal inhibition (IC50) in data set [1] (setting [4]) was 26 ± 5.1 µM; in data set [1] (setting [5]), 8.3 ± 1.1 µM; in data set [2] (setting [6]), 23.9 ± 3.1 µM; in data set [2] (setting [7]), 1 ± 0.1 µM. Further, the “TMI (3D/2D)” value in data set [1] is reported as 8.3. Further, the “PI (phototoxicity index) 2D” value in data set [2] was 23.

Values taken from publication PMC12261233, “Photoactivatable Cyclometalated Ir(III) Compound Penetrates the Blood-Brain Barrier in 3D Spheroidal and Advanced 3D Organoid Models of Inherently Resistant and Aggressive Brain Tumors” (ACS Pharmacology & Translational Science, 2025).
